Laboratory results: patent US6372937B1, “Enhanced catalyzed reporter deposition” (priority 1998, dated 2002)
Values belong to the molecule of their own block, whether it stands above or below them.

Assays:
HRP [1] = target: T1, HRP (Armoracia rusticana, UniProt P00433); experiment: Enhanced CARD detection using cyanine 3 tyramide on human prostate tissue slides; format: biochemical, horseradish
T1 sequence (P00433 31-338): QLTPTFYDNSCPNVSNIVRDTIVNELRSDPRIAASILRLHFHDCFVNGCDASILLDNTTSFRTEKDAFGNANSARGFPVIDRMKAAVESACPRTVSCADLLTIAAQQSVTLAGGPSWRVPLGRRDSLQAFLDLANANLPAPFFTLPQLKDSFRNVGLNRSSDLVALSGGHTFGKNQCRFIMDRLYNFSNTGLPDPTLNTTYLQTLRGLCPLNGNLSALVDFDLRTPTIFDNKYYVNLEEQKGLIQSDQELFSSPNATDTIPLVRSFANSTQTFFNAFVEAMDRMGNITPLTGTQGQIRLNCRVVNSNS
Method: Human prostate tissue slides (Dako Corp., Carpinteria, Calif.) were deparaffinized and blocked for thirty minutes with TNB Blocking Buffer (TSA Direct Cyanine 3 kit, NEN Life Science Products, Boston, Mass.). Rabbit anti-human prostate specific antigen (Dako) diluted 1/40,000 in TNB buffer was incubated for one hour at room temperature. The slides were washed in TNT buffer (TSA Direct Cyanine 3 kit) and then incubated with an anti-rabbit IgG-HRP conjugate (Roche Molecular Biochemicals, Indianapolis, Ind.) diluted 1/1000 in TNB buffer for one hour at room temperature. Standard CARD detection was performed using the TSA Direct Cyanine 3 kit. Organic enhanced CARD detection was performed using the TSA Direct Cyanine 3 kit and adding p-iodophenyl boronic acid (structure 2) at a 20:1 (w/w) ratio to the cyanine 3 tyramide reagent. Organic and salt enhanced CARD detection was performed using the TSA Direct Cyanine 3 kit, adding p-iodophenyl boronic acid (structure 2) at a 20:1 (w/w) ratio to the cyanine 3 tyramide reagent and adding NaCl to the diluent to a final concentration of 2M. The slides were washed in TNT buffer, mounted with mounting medium and a coverslip.

HRP [2] = target: T1, HRP; experiment: Enhanced CARD detection using fluorescein tyramide on human prostate tissue slides; format: biochemical, horseradish
Method: Human prostate tissue slides (Dako) were deparaffinized and blocked for thirty minutes with TNB Blocking Buffer (TSA Direct Green kit, NEN Life Science Products). Rabbit anti-human prostate specific antigen (Dako) diluted 1/10,000 in TNB buffer was incubated for one hour at room temperature. The slides were washed in TNT buffer (TSA Direct Green kit) and then incubated with an anti-rabbit IgG-HRP conjugate (Roche) diluted 1/1000 in TNB buffer for one hour at room temperature. Standard CARD detection was performed using the TSA Direct Green kit, which utilizes fluorescein tyramide. Organic enhanced CARD detection was performed using the TSA Direct Green kit and adding p-iodophenyl boronic acid (structure 2) at a 20:1 (w/w) ratio to the fluorescein tyramide reagent. Organic and salt enhanced CARD detection was performed using the TSA Direct Green kit, adding p-iodophenyl boronic acid (structure 2) at a 20:1 (w/w) ratio to the fluorescein tyramide reagent and adding NaCl to the diluent to a final concentration of 2M. The slides were washed in TNT buffer, mounted with mounting medium and a coverslip.

HRP [3] = target: T1, HRP; conditions: cited from earlier work
HRP [4] = target: T1, HRP; experiment: Enhanced CARD detection using biotinyl tyramide on human prostate tissue slides; format: biochemical, horseradish; conditions: enhancer at 20:1 (w/w) plus NaCl 2M, Streptavidin-HRP/diaminobenzidine readout
Method: Human prostate tissue slides (Dako) were deparaffinized and blocked for thirty minutes with TNB Blocking Buffer (TSA Indirect kit, NEN Life Science Products). Rabbit anti-human prostate specific antigen (Dako) diluted 1/100,000 in TNB buffer was incubated for one hour at room temperature. The slides were washed in TNT buffer (TSA Indirect kit) and then incubated with an anti-rabbit IgG-HRP conjugate (Roche) diluted 1/1000 in TNB buffer for one hour at room temperature.
Standard CARD detection was performed using the TSA Indirect kit, which utilizes biotinyl tyramide. Organic and salt enhanced CARD detection was performed using the TSA Indirect kit, adding N-(5-hydroxypentyl)-3-(p-hydroxyphcnyl)propionamide (structure 1) at a 20:1 (w/w) ratio to the biotinyl tyramide reagent and adding NaCl to the diluent to a final concentration of 2M. The slides were washed in TNT buffer, and Streptavidin-HRP (TSA Indirect kit) diluted 1/100 in TNB buffer was incubated for thirty minutes at room temperature. The slides were washed in TNT buffer and diaminobenzidine (NEN Life Science Products) was added and incubated for three minutes at room temperature. The slides were washed with water, and counterstained with Hematoxylin. The slides were then washed with water, phosphate buffered saline, water, dehydrated and mounted.

[5] = enhancer at 20:1 (w/w) ratio to tyramide reagent
[6] = NaCl 2M in diluent added to p-iodophenyl boronic acid 20:1 (w/w)

organic enhanced vs standard CARD detection (FIG. 1A compared to FIG. 1B) (HRP [1]; [5]): very dramatic difference | organic enhanced vs standard CARD detection (FIG. 2A compared to FIG. 2B) (HRP [2]; [5]): significant difference
Compound: OB(O)c1ccc(I)cc1 [p-iodophenyl boronic acid]

Compound: c1c[nH]cn1 [imidazole]
effect on the oxidation of 4-chloro-1-naphthol (HRP [3]; substrate 4-chloro-1-naphthol): no effect | enhancement of the oxidation of p-phenylenediamine-pyrocatechol (HRP [3]; substrate combination p-phenylenediamine-pyrocatechol): two fold | enhancement of the oxidation of diaminobenzidine (HRP [3]; substrate diaminobenzidine): approximately four fold

Compound: [Cl-].[Na+] [NaCl]
addition of salt to the organic enhanced CARD detection (FIG. 1B compared to FIG. 1C) (HRP [1]; [6]): significant improvement | addition of salt to the organic enhanced CARD detection (FIG. 2B compared to FIG. 2C) (HRP [2]; [6]): very dramatic improvement

organic and salt enhanced vs standard CARD detection (FIG. 3A compared to FIG. 3B) (HRP [4]): striking difference
Compound: O=C(CCc1ccc(O)cc1)NCCCCCO [N-(5-hydroxypentyl)-3-(p-hydroxyphcnyl)propionamide]
